What was measured:
[1] = tested on: AsPC-1 cells containing homozygous KRAS-G12D activating mutation; assay: Cellular phospho-ERK assay (Examples 1a-106); format: cell-based; settings: AsPC-1 cells, 2 hours, ratio of p-Erk vs total Erk, read-out: IC50 (nM) pERK (Cell)
Description: 5% CO? overnight. […] Assay plates were read on a EnVision Multimode Plate Reader (PerkinElmer) and the ratio of p-Erk vs total Erk in each well was used as the final readout.

[2] = target: KRAS protein containing G12D mutation (Homo sapiens (Human), UniProt P01116, G12D); assay: SOS-catalyzed nucleotide exchange assay (GNE), TR-FRET; format: biochemical; settings: biotinylated KRAS G12D, SOS and GTP, 60-minute incubation
KRAS protein containing G12D mutation, sequence (P01116 other isoform, or with tags, fused parts or gaps G12D (already in the parent)): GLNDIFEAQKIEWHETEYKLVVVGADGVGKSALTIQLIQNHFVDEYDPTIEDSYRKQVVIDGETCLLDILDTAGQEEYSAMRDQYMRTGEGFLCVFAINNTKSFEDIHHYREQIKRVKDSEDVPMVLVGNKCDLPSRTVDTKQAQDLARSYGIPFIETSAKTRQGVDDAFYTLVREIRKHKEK
Procedure: Compounds are added to this complex and then after a 60-minute incubation time the mixture is treated with SOS and unlabeled GTP. Small molecule inhibitors stabilize the Bodipy-GDP complex whereas the untreated protein rapidly exchanges Bodipy-GDP for unlabeled GTP resulting in reduced TR-FRET signal.
This solution is referred to as biotinylated KRAS G12D stock solution.

[3] = tested on: AsPC-1 cells containing homozygous KRAS-G12D activating mutation; assay: Cellular phospho-ERK assay with 10% FBS (Examples 107a-256); format: cell-based
Procedure: 5% CO2 for 2 hours. […] Assay plates were read on a EnVision Multimode Plate Reader (PerkinElmer) and the ratio of p-Erk vs total Erk in each well was used as the final readout.

[4] = read-out: IC50 (nM) pERK (cell with FBS 10%), AsPC-1 cells, 10% fetal bovine serum, 2 hours, ratio of p-Erk vs total Erk

Row | Structure (SMILES) | IC50 [1] | IC50 [2] | IC50 ([1]; Homo sapiens, ASPC1, 2 h) | IC50 [3, 4] | IC50 ([3]; Homo sapiens, ASPC1, 2 h, read-out: IC50 (nM) pERK (cell with FBS 10%), AsPC-1 cells, 10% fetal bovine serum, 2 hours, ratio of p-Erk vs total Erk)
1 | Cc1cc2[nH]ncc2c(-c2c(F)cc3c(N4CC5CCC(C4)N5)nc(OCC4(CN(C)C)CC4(F)F)nc3c2F)c1C (single isomer, unassigned) [Example 66b, 1-(1-(((4-(3,8-diazabicyclo [3.2.1]octan-3-yl)-7-(5,6-dimethyl-1H-indazol-4-yl)-6,8-difluoroquinazolin-2-yl)oxy)methyl)-2,2-difluorocyclopropyl)-N,N-dimethylmethanamine] | 2120 nM | 31.1 nM | – | – | –
2 | CN(C)CC1(COc2nc(N3CC4CC(O)C(C3)N4)c3cc(Cl)c(-c4cc(O)cc5ccccc45)c(F)c3n2)CC1 (single isomer, unassigned) [Example 19b] | 50800 nM | 1790 nM | – | – | –
3 | Cc1c(Cl)cc2[nH]nc(C)c2c1-c1c(F)cc2c(N3CC4CCC(C3)N4)nc(OCC3(CN4CC[C@@H](F)C4)CC3)nc2c1F (single isomer, unassigned) [Ex 71a] | 505 nM | 18.9 nM | – | – | –
4 | Oc1cc(-c2c(Cl)cc3c(N4CC5NC(C4)C(O)C5O)nc(OCC4(CN5CCOCC5)CC4)nc3c2F)c2ccccc2c1 (centres unmarked) [Ex. 1a, 3-(6-chloro-8-fluoro-7-(3-hydroxynaphthalen-1-yl)-2-((1-(morpholinomethyl)cyclopropyl)methoxy)quinazolin-4-yl)-3,8-diazabicyclo[3.2.1]octane-6,7-diol] | – | 742 nM | 14600 nM | – | –
5 | Cc1cc2[nH]ncc2c(C2Cc3nc(OCC4(CN5CC[C@@H](F)C5)CC4)nc(N4C[C@H]5CC[C@@](C)(C4)N5)c3C(=O)N2)c1C(F)(F)F (stereo partly drawn) [Ex. 98b, 2-((1-(((R)-3-fluoropyrrolidin-1-yl)methyl)cyclopropyl)methoxy)-7-(6-methyl-5-(trifluoromethyl)-1H-indazol-4-yl)-4-((1S,5R)-1-methyl-3,8-diazabicyclo[3.2.1]octan-3-yl)-7,8-dihydropyrido[4,3-d]pyrimidin-5(6H)-one] | – | 11100 nM | 50800 nM | – | –
6 | Cc1cc2[nH]ncc2c(-c2c(F)cc3c(N4C[C@H]5CC[C@@](C)(C4)N5)nc(OC[C@]4(CN(C)C)CC4(F)F)nc3c2F)c1C(F)(F)F (single isomer, unassigned) [Ex 76b] | 4530 nM | 597 nM | – | – | –
7 | Nc1nc2c(-c3c(Cl)cc4c(N5CC6CCC(C5)N6)nc(OCC5(CN6CCOCC6)CC5)nc4c3F)cccc2o1 [Example 59, 4-(4-(3,8-diazabicyclo[3.2.1]octan-3-yl)-6-chloro-8-fluoro-2-((1-(morpholinomethyl)cyclopropyl)methoxy)quinazolin-7-yl)benzo[d]oxazol-2-amine] | – | 20.1 nM | 2210 nM | – | –
8 | Fc1c(-c2ccc(F)c3scnc23)c(Cl)cc2c(N3CC4CCC(C3)N4)nc(OCC3(CN4CCOCC4)CC3)nc12 [Example 53, 4-((1-(((4-(3,8-diazabicyclo[3.2.1]octan-3-yl)-6-chloro-8-fluoro-7-(7-fluorobenzo[d]thiazol-4-yl)quinazolin-2-yl)oxy)methyl)cyclopropyl)methyl) morpholine] | – | 2780 nM | 11000 nM | – | –
9 | C[C@]12CC[C@H](CN(c3nc(OCC4(CN5CCOCC5)CC4)nc4c(F)c(-c5c(F)cc(F)c6ccc(N)nc56)c(Cl)cc34)C1)N2 (single isomer, unassigned) [Ex. 91b] | 4160 nM | 1020 nM | – | – | –
10 | Cc1cc2[nH]ncc2c(-c2c(F)cc3c(N4C[C@H]5CC[C@@](C)(C4)N5)nc(OCC4(CN5CC[C@@H](F)C5)CC4)nc3c2F)c1C(F)(F)F (single isomer, unassigned) [Ex 80b] | 5970 nM | 1320 nM | – | – | –
11 | CN(C)CC1(COc2nc(N3CC4CC(O)C(C3)N4)c3cc(Cl)c(-c4cc(O)cc5ccccc45)c(F)c3n2)CC1 (single isomer, unassigned) [Example 19a] | – | 1180 nM | 50800 nM | – | –
12 | CN(C)CC1(COc2nc(N3C[C@@]4(C)CC[C@H]3CN4)c3cc(Cl)c(-c4cc(O)cc5ccccc45)c(F)c3n2)CC1 (single isomer, unassigned) [Example 38b] | 22200 nM | 3400 nM | – | – | –
13 | CN(C)C1CC[C@H]2C[C@@]12COc1nc(N2C[C@H]3CC[C@@](C)(C2)N3)c2cc(F)c(-c3cc(O)cc4ccccc34)c(F)c2n1 (single isomer, unassigned) [Example 12b] | 841 nM | 2.07 nM | – | – | –
14 | Cc1c(Cl)cc2[nH]nc(C)c2c1-c1c(F)cc2c(N3C[C@H]4CC[C@@](C)(C3)N4)nc(OC[C@]3(CN(C)C)CC3(F)F)nc2c1F [Ex 75, 1-((1R)-1-(((7-(6-chloro-3,5-dimethyl-1H-indazol-4-yl)-6,8-difluoro-4-((1S,5R)-1-methyl-3,8-diazabicyclo[3.2.1]octan-3-yl)quinazolin-2-yl)oxy)methyl)-2,2-difluorocyclopropyl)-N,N-dimethylmethanamine] | – | 1440 nM | 7160 nM | – | –
15 | CNc1nc2c(-c3c(Cl)cc4c(N5CC6CCC(C5)N6)nc(OCC5(CN6CCOCC6)CC5)nc4c3F)ccc(F)c2s1 [Example 51, 4-(4-(3,8-diazabicyclo[3.2.1]octan-3-yl)-6-chloro-8-fluoro-2-((1-(morpholinomethyl)cyclopropyl)methoxy)quinazolin-7-yl)-7-fluoro-N-methylbenzo[d]thiazol-2-amine] | – | 3930 nM | 11200 nM | – | –
16 | Oc1cc(-c2c(F)cc3c(N4CC5CC(F)C(C4)N5)nc(OCC4(CN5CCOCC5)CC4)nc3c2F)c2ccccc2c1 (single isomer, unassigned) [Ex. 3a, 4-(6,8-difluoro-4-(6-fluoro-3,8-diazabicyclo[3.2.1]octan-3-yl)-2-((1-(morpholinomethyl)cyclopropyl)methoxy)quinazolin-7-yl)naphthalen-2-ol] | 3610 nM | 506 nM | – | – | –
17 | CN(C)CC1(COc2nc(N3CC4CCC(C3)N4)c3cc(Cl)c(-c4c(Cl)c(F)cc5[nH]ncc45)c(F)c3n2)CC1 [Example 55, 1-(1-(((4-(3,8-diazabicyclo[3.2.1]octan-3-yl)-6-chloro-7-(5-chloro-6-fluoro-1H-indazol-4-yl)-8-fluoroquinazolin-2-yl)oxy)methyl)cyclopropyl)-N,N-dimethylmethanamine] | – | 969 nM | 7060 nM | – | –
18 | CN(C)CC1(COc2nc(N3CC4CC(C#N)C(C3)N4)c3cc(F)c(-c4cc(O)cc5ccccc45)c(F)c3n2)CC1 (centres unmarked) [Example 28, 3-(2-((1-((dimethylamino)meth-yl)cyclopro-pyl)methoxy)-6,8-difluoro-7-(3-hydroxynaphthalen-1-yl)quinazolin-4-yl)-3,8-diazabicyclo[3.2.1]oc-tane-6-carbontrile] | – | 7450 nM | 50800 nM | – | –
19 | CN(C)CC1(COc2nc(N3CC4NC(C3)C3CC43)c3cc(Cl)c(-c4cc(O)cc5ccccc45)c(F)c3n2)CC1 (centres unmarked) [Example 30, 4-(6-chloro-2-((1-((dimethylamino)meth-yl)cyclopropyl)meth-oxy)-8-fluoro-4-(7,9-diazatri-cyclo[3.3.1.02,4]nonan-7-yl)quinazolin-7-yl)naphthalen-2-ol] | – | 7610 nM | 30100 nM | – | –
20 | CC1CC2CN(c3nc(OCC4(CN(C)C)CC4)nc4c(F)c(-c5cc(O)cc6ccccc56)c(F)cc34)CC1N2 (centres unmarked) [Example 29, 4-(2-((1-((dimethyl-amino)methyl)cyclopro-pyl)methoxy)-6,8-difluoro-4-(6-methyl-3,8-diazabicyclo[3.2.1]oc-tan-3-yl)quinazolin-7-yl)naphthalen-2-ol] | – | 705 nM | 11600 nM | – | –
21 | CN(C)CC1(COc2nc(N3C[C@H]4CC[C@@H](C3)N4)c3cc(Cl)c(-c4c(C(F)(F)F)ccc5[nH]ncc45)c(F)c3n2)CC1 [Example 63, 1-(1-(((4-((1R,5S)-3,8-diazabicyclo [3.2.1]octan-3-yl)-6-chloro-8-fluoro-7-(5-(trifluoromethyl)-1H-indazol-4-yl)quinazolin-2-yl)oxy)methyl)cyclopropyl)-N,N-dimethylmethanamine] | – | 1590 nM | 26800 nM | – | –
22 | CN(C)C[C@@]1(COc2nc(N3C[C@]4(C)CC[C@H]3CN4)c3cc(F)c(-c4cc(O)cc5ccccc45)c(F)c3n2)CC1(F)F [Ex 83, 4-(2-(((R)-1-((dimethylamino)methyl)-2,2-difluorocyclopropyl)methoxy)-6,8-difluoro-4-((1S,4S)-4-methyl-2,5-diazabicyclo [2.2.2]octan-2-yl)quinazolin-7-yl) naphthalen-2-ol] | – | 2.72 nM | 640 nM | – | –
23 | C[C@]12CC[C@H](CN(c3nc(OC[C@@]45CCCN4C[C@H](F)C5)nc4c(F)c(-c5c(F)cc(F)c6oc(N)nc56)c(Cl)cc34)C1)N2 (single isomer, unassigned) [Ex. 170b] | – | 874 nM | – | 14900 nM | –
24 | C[C@]12CC[C@H](CN(c3nc(OC[C@@]45CCCN4C[C@H](F)C5)nc4c(F)c(-c5c(F)cc(F)c6oc(N)nc56)c(Cl)cc34)C1)N2 (single isomer, unassigned) [Ex. 170a] | – | 4.72 nM | – | 1380 nM | –
25 | Cc1cc2[nH]nc(C)c2c(-c2c(F)cc3c(N4C[C@H]5CC[C@@H](C4)N5)nc(OCC4(CN5CCOCC5)CC4)nc3c2F)c1OC(F)F [Ex. 127, 4-((1-(((4-((1R,5S)-3,8-diazabicyclo[3.2.1]octan-3-yl)-7-(5-(difluoromethoxy)-3,6-dimethyl-1H-indazol-4-yl)-6,8-difluoroquinazolin-2-yl)oxy)methyl)cyclopropyl)methyl) morpholine] | – | 39 nM | – | – | 3600 nM

— patent US20240239788A1, “SMALL MOLECULE INHIBITORS OF KRAS G12D MUTANT” (Merck Sharp & Dohme LLC, priority 2021, published 2024)
